Source: patent publication US11136345B2, “Large scale preparation of pseudo-trisaccharide aminoglycosides and of intermediates thereof” (Eloxx Pharmaceuticals Ltd., priority 2017, dated 2021)

Tested on: Rett Syndrome mutation R270X
Test: Read-through activity in cell-free assay (firefly/renilla luciferase reporter, in vitro transcription/translation)
Type: biochemical, rabbit
Details: cell-free dose-response, concentration range 0-12 μM; firefly/renilla expression ratio normalized to WT and non-treated control (FIGS. 6A-B)
Description: The plasmids were transcribed in vitro and translated using rabbit reticulocytes (TNT mix) and then tested for the expression levels of the firefly and renilla luciferases. WT plasmids expressed both firefly and renilla luciferases while mutant plasmids expressed only the renilla luciferase due to the stop codon found in the inserted sequence. The read-through assays were conducted for the tested compounds and the controls by adding the compounds to the in vitro transcription/translation reaction mixture. In case the compounds exerted suppression of the premature nonsense/stop codon mutation, the firefly luciferase was expressed and a fold-change in its expression was observed.
Read-through activity of Rett Syndrome mutation R270X was tested using ELX-02 that was manufactured in Example 1 and 2, and the mutation suppression was calculated based on firefly/renilla expression ratio values, and normalized with respect to the expression level of the WT and the control sample (no tested compound).
FIGS. 6A-B present the results of Rett Syndrome mutation R270X nonsense mutation suppression dose-response cell-free assays conducted for ELX-02 according to embodiments of the present invention, at a concentration rage of 0-12 μM.

For `C[C@H](N)[C@H]1O[C@@H](OC2C(O)[C@H](N)CC(N)[C@H]2O[C@H]2OC([C@@H](C)O)[C@@H](O)C(O)C2N)C(O)C1O` (stereo partly shown) [ELX-02], the “read-through of the Rett Syndrome mutation, R270X” value was “dose-dependent increase”.
